{"source": "patent US10265286B2", "about": "“Sequelae of cardiopulmonary bypass-induced pulmonary injury” (Vanderbilt University, priority 2016, dated 2019)", "key": {"[1]": {"test": "Phase IB study: duration of ICU stay", "assay_type": "in vivo, human", "protocol": "Duration of ICU stay was analyzed once as the total number of postoperative hours spent in the ICU and once as the total number of postoperative hours that a patient required postoperative mechanical ventilator or continuous intravenous inotrope or vasodilator support. The latter combination of parameters represents another surrogate endpoint for ICU stay."}, "[2]": {"test": "Phase IB study: postoperative invasive mechanical ventilation", "assay_type": "in vivo, human", "conditions": "end of surgery until last extubation, FIG. 20"}, "[3]": {"test": "Phase IB study: duration of hospitalization", "assay_type": "in vivo, human", "conditions": "postoperative until discharge", "protocol": "Duration of hospitalization was calculated as the total number of days postoperative until discharge from the hospital. The average duration of hospitalization was lower in the citrulline than the placebo treatment group, however, the difference was not statistically significant (Table 17)."}, "[4]": {"test": "Phase IB study: vasoactive medications", "assay_type": "in vivo, human", "protocol": "The total number of hours on vasoactive medications, including nitroglycerin, nitroprusside and vasopressin, was calculated from the end of surgery until the discontinuation of vasoactive medications or end of study medication (Hour 48), whichever occurred first. Table 14 compares the length of time on vasoactive medications for the citrulline and placebo treatment groups. The overall duration of concomitant vasoactive treatment was shorter in citrulline—than placebo-treated patients, but the difference was not statistically significant. Similar results are shown for the total vasoactive score. However, the patient receiving citrulline did, in fact, show a shorter total duration of vasoactive medication as shown in FIG. 30."}, "[5]": {"test": "Hemodynamics (mean arterial blood pressure) after intravenous citrulline in piglets", "assay_type": "in vivo, Duroc swine", "conditions": "600 mg/kg IV", "protocol": "The objective was to assess the safety of intravenous citrulline and its effect on serum arginine levels in piglets. A total of 9 Duroc swine, aged 5-21 days, with a target minimum weight of 4 kg were utilized. All piglets underwent anesthetic induction and tracheostomy. Central lines were placed in the femoral artery and femoral vein and hemodynamics monitored continuously. Citrulline (600 mg/kg IV) was administered to 5 piglets. Saline was given to control animals. Serum amino acids were drawn before and each hour after citrulline administration."}, "[6]": {"test": "Phase IB study: length of time on inotropes and inotrope score", "assay_type": "in vivo, human", "description": "The inotrope dose should be monitored post operatively from the time of PCCU admission using the following scoring system:\n• =total inotrope score See, e.g., Hoffman, et al. Circulation (2003) 107: 996-1002. A decrease in the inotrope score would be a positive postoperative outcome.\nIn FIG. 21, data are defined as the time between the start and end times of inotrope use. All missing or 0 total inotrope scores prior to the first measured score are set to 0 and are therefore not considered as being on inotropes. The total inotrope score is considered, which is calculated on the basis of Dopamine, Dobutamine, Milrinone, Epinephrine, Phenylephrine, and Norepinephrine. The length of time on inotropes of patients with no use of inotropes is set to 0 hours (not censored).\nThe length of time on IV inotropes was documented from the time of first use after surgery until completion of the study medication at 48 hours, i.e. the duration of inotrope use was maximally 48 hours in the current analysis. Patients still receiving inotropes at hour 48 after surgery were censored. The average duration of intravenous (IV) inotrope use was clearly lower in the citrulline group than in the placebo group (Table 12). However, statistical significance for the between-treatment difference was not reached."}, "[7]": {"test_system": "human vascular endothelial cells", "test": "Nitric oxide production by cultured human vascular endothelial cells (FIG. 23)", "assay_type": "cell-based", "conditions": "cells stimulated with acetylcholine; nitrate/nitrites by Seiver's system", "protocol": "These agents were administered to cultured human vascular endothelial cells stimulated with acetylcholine. Measurement of nitric oxide was through a Seiver's system of nitrate/nitrites."}, "[8]": {"test": "Phase IB study: plasma citrulline concentrations (Example 10A)", "assay_type": "in vivo, human", "conditions": "for Number of samples with Citrulline >100 μmol/L / Number of samples with Citrulline ≤100 μmol/L: all samples except baseline", "protocol": "(§1) Twenty two (22) patients were enrolled and treated. Patients received an IV citrulline bolus of 150 mg/kg or placebo at the initiation of CPB, followed by the addition of L-citrulline at a concentration of 200 μmol/L or placebo to the filtration or hemoconcentration replacement fluid used during CPB. A citrulline bolus of 20 mg/kg was administered 30 minutes after decannulation from CPB, immediately followed by a 9-mg/kg/hr continuous infusion of citrulline or placebo for 48 hours. Study participation ended at discharge or at Day 28 whichever came first.\n(§2) Plasma citrulline concentration levels were the primary PK variable; these were assessed in blood samples collected at 7 perioperative time points. Secondary PK variables were concentrations of arginine and nitric oxide (NO) metabolites in the same sample set. PK values were compared between groups.\nThe citrulline concentration levels during and after the CPB procedure was the PK parameter of interest in this study. The target level in patients treated with intravenous citrulline was a plasma citrulline level of >100 μmol/L during the immediate follow-up period after CPB. Plasma blood collection was performed at 7 perioperative time points: at baseline before surgery, during CPB (post-bolus 1), and after surgery/CPB at the time points 0 hours (pre bolus 2), 6 hours, 12 hours, 24 hours, and 48 hours."}, "[9]": {"test": "Phase IB study: plasma nitric oxide (NO metabolite) concentrations", "assay_type": "in vivo, human", "conditions": "each of the treatment groups", "protocol": "as §1, §2"}, "[10]": {"conditions": "total postoperative hours in ICU"}, "[11]": {"conditions": "end of surgery until discontinuation or Hour 48"}, "[12]": {"conditions": "all i.v. inotropes postoperatively"}, "[13]": {"conditions": "revised IV protocol, Post Bolus 1"}, "[14]": {"conditions": "revised IV protocol, Pre Bolus 2"}}, "data": [{"smiles": "NC(=O)NCCCC(N)C(=O)O", "note": "(stereo not shown) [Citrulline, 2-amino-5-(carbamoylamino)pentanoic acid]", "values": [{"measurement": "Longest duration of mechanical ventilation, i.v. inotrope use, or vasodilator use, Diff (CI) placebo vs citrulline", "setting": "[1]; re-intubation excluded", "value": "17.5 (−1.2, 36.2) hours"}, {"measurement": "Longest duration of mechanical ventilation, i.v. inotrope use, or vasodilator use, Mean ± SD", "setting": "[1]; re-intubation excluded", "value": "14.5 ± 13.99", "unit": "h"}, {"measurement": "Longest duration of mechanical ventilation, i.v. inotrope use, or vasodilator use, Median", "setting": "[1]; re-intubation excluded", "value": 15.0, "unit": "h"}, {"measurement": "Longest duration of mechanical ventilation, i.v. inotrope use, or vasodilator use, Range", "setting": "[1]; re-intubation excluded", "value": "0.0 to 47.0", "unit": "h"}, {"measurement": "Longest duration of mechanical ventilation, i.v. inotrope use, or vasodilator use, Diff (CI) placebo vs citrulline", "setting": "[1]; re-intubation included", "value": "29.9 (−11.0, 70.9) hours"}, {"measurement": "Longest duration of mechanical ventilation, i.v. inotrope use, or vasodilator use, Mean ± SD", "setting": "[1]; re-intubation included", "value": "14.5 ± 13.99", "unit": "h"}, {"measurement": "Longest duration of mechanical ventilation, i.v. inotrope use, or vasodilator use, Median", "setting": "[1]; re-intubation included", "value": 15.0, "unit": "h"}, {"measurement": "Longest duration of mechanical ventilation, i.v. inotrope use, or vasodilator use, Range", "setting": "[1]; re-intubation included", "value": "0.0 to 47.0", "unit": "h"}, {"measurement": "Duration of PICU stay, Diff (CI) placebo vs citrulline", "setting": "[1]; [10]", "value": "69.14 (−49.39, 187.67) hours"}, {"measurement": "Duration of PICU stay, Median", "setting": "[1]; [10]", "value": 28.52, "unit": "h"}, {"measurement": "Duration of PICU stay, Range", "setting": "[1]; [10]", "value": "20.8 to 72.0", "unit": "h"}, {"measurement": "Duration of PICU stay, Mean ± SD", "setting": "[1]; total postoperative hours in ICU, N = 11", "value": "35.94 ± 16.150", "unit": "h"}, {"measurement": "duration of mechanical ventilation versus placebo (Kaplan-Meier)", "setting": "[2]", "value": "reduced duration of mechanical ventilation"}, {"measurement": "Duration of hospitalization, Diff (CI) placebo vs citrulline", "setting": "[3]", "value": "3.7 (−2.2, 9.7) days"}, {"measurement": "Duration of hospitalization, Median", "setting": "[3]", "value": 5.0, "unit": "days"}, {"measurement": "Duration of hospitalization, Range", "setting": "[3]", "value": "3.0 to 7.0", "unit": "days"}, {"measurement": "Duration of hospitalization, Mean ± SD", "setting": "[3]; N = 11", "value": "4.6 ± 1.21", "unit": "days"}, {"measurement": "Total vasoactive score, Mean ± SD", "setting": "[4]; N = 11", "value": "5.5 ± 10.62"}, {"measurement": "Length of time on vasoactive medications, Diff (CI) placebo vs citrulline", "setting": "[4]; [11]", "value": "3.5 (−7.0, 14.1) hours"}, {"measurement": "Length of time on vasoactive medications, Median", "setting": "[4]; [11]", "value": 1.0, "unit": "h"}, {"measurement": "Length of time on vasoactive medications, Range", "setting": "[4]; [11]", "value": "0.0 to 17.0", "unit": "h"}, {"measurement": "Length of time on vasoactive medications, Mean ± SD", "setting": "[4]; end of surgery until discontinuation or Hour 48, N = 11", "value": "6.3 ± 7.18", "unit": "h"}, {"measurement": "Total vasoactive score, Diff (CI) placebo vs citrulline", "setting": "[4]; in vivo", "value": "5.2 (−7.7, 18.0)"}, {"measurement": "Total vasoactive score, Median", "setting": "[4]; in vivo", "value": 1.1}, {"measurement": "Total vasoactive score, Range", "setting": "[4]; in vivo", "value": "0.0-35.5"}, {"measurement": "hemodynamic instability", "setting": "[5]", "value": "No hemodynamic instability"}, {"measurement": "Mean Arterial Blood Pressures", "setting": "[5]; 1 hour post", "value": 67.4, "unit": "mmHg"}, {"measurement": "Mean Arterial Blood Pressures", "setting": "[5]; 2 hours post", "value": 64.8, "unit": "mmHg"}, {"measurement": "Mean Arterial Blood Pressures", "setting": "[5]; 3 hours post", "value": 62.2, "unit": "mmHg"}, {"measurement": "Mean Arterial Blood Pressures", "setting": "[5]; Pre-dose", "value": 67.0, "unit": "mmHg"}, {"measurement": "Total inotrope score, Diff (CI) placebo vs citrulline", "setting": "[6]; [12]", "value": "559.8 (−193.5, 1313.2)"}, {"measurement": "Total inotrope score, Median", "setting": "[6]; [12]", "value": 650.0}, {"measurement": "Total inotrope score, Range", "setting": "[6]; [12]", "value": "0.0-2351.0"}, {"measurement": "Total inotrope score, Mean ± SD", "setting": "[6]; all i.v. inotropes postoperatively, N = 11", "value": "602.7 ± 727.86"}, {"measurement": "Length of time on i.v. inotropes, Diff (CI) placebo vs citrulline", "setting": "[6]; maximally 48 hours", "value": "12.7 (−2.6, 28.1) hours"}, {"measurement": "Length of time on i.v. inotropes, Median", "setting": "[6]; maximally 48 hours", "value": 16.0, "unit": "h"}, {"measurement": "Length of time on i.v. inotropes, Range", "setting": "[6]; maximally 48 hours", "value": "0.0 to 47.0", "unit": "h"}, {"measurement": "Length of time on i.v. inotropes, Mean ± SD", "setting": "[6]; maximally 48 hours, N = 11", "value": "13.4 ± 14.78", "unit": "h"}, {"measurement": "production of nitric oxide", "setting": "[7]", "value": "increases the production of NO"}, {"measurement": "Number of samples with Citrulline >100 μmol/L", "setting": "[8]; Site 01", "value": 25}, {"measurement": "Number of samples with Citrulline ≤100 μmol/L", "setting": "[8]; Site 01", "value": 2}, {"measurement": "Number of samples with Citrulline >100 μmol/L", "setting": "[8]; Site 02", "value": 29}, {"measurement": "Number of samples with Citrulline ≤100 μmol/L", "setting": "[8]; Site 02", "value": 3}, {"measurement": "samples with plasma citrulline levels <100 μmol/L", "setting": "[8]; of the total of 59 samples, excluding baseline samples", "value": 5}, {"measurement": "Citrulline concentrations, Mean ± SD", "setting": "[8]; revised IV protocol, N = 11, Baseline", "value": "200.9 ± 569.89", "unit": "µmol/L"}, {"measurement": "Citrulline concentrations, Median", "setting": "[8]; revised IV protocol, Baseline", "value": 32.0, "unit": "µmol/L"}, {"measurement": "Citrulline concentrations, Mean ± SD", "setting": "[8]; revised IV protocol, Hour 6", "value": "167.8 ± 117.67", "unit": "µmol/L"}, {"measurement": "Citrulline concentrations, Median", "setting": "[8]; revised IV protocol, Hour 6", "value": 138.0, "unit": "µmol/L"}, {"measurement": "Citrulline concentrations, Mean ± SD", "setting": "[8]; revised IV protocol, Hour 12", "value": "127.1 ± 16.18", "unit": "µmol/L"}, {"measurement": "Citrulline concentrations, Median", "setting": "[8]; revised IV protocol, Hour 12", "value": 125.0, "unit": "µmol/L"}, {"measurement": "Citrulline concentrations, Mean ± SD", "setting": "[8]; revised IV protocol, Hour 24", "value": "125.3 ± 38.74", "unit": "µmol/L"}, {"measurement": "Citrulline concentrations, Median", "setting": "[8]; revised IV protocol, Hour 24", "value": 114.0, "unit": "µmol/L"}, {"measurement": "Citrulline concentrations, Mean ± SD", "setting": "[8]; [13]", "value": "2405.9 ± 1517.4", "unit": "µmol/L"}, {"measurement": "Citrulline concentrations, Median", "setting": "[8]; [13]", "value": 2577.0, "unit": "µmol/L"}, {"measurement": "Citrulline concentrations, Mean ± SD", "setting": "[8]; [14]", "value": "890.9 ± 1077.5", "unit": "µmol/L"}, {"measurement": "Citrulline concentrations, Median", "setting": "[8]; [14]", "value": 573.0, "unit": "µmol/L"}, {"measurement": "plasma citrulline levels achieved", "setting": "[8]; revised IV protocol, target level 100 μmol/L", "value": "> 100", "unit": "µmol/L"}, {"measurement": "plasma nitric oxide levels across the sampling time points", "setting": "[9]", "value": "remained more or less unchanged"}]}]}
